This passage reports IC50 results from patent US10316038B2, “Pyrrolopyrimidine ITK inhibitors for treating inflammation and cancer” (ACLARIS THERAPEUTICS, INC., priority 2017, dated 2019).

In assay [1] the test system is ITK phosphorylation of its substrate, PLCγ1, at Y783. The assay can be described thus: ITK target modulation assay (phospho-Y783 PLCγ1 immunoblot in Jurkat T cells). Format: cell-based. Conditions: 2 hours compound, CD3/CD28 Dynabeads stimulation 100 sec, anti-phospho-Y783 PLCγ1 immunoblot, read-out: PLC-γ Inhibition IC50. An outline of the steps: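 Human Jurkat T cells (4 million per tube) were pretreated with compound for 2 hours at 37° C. They were then stimulated with CD3/CD28 Dynabeads (1 bead per cell) for 100 sec and lysed. Lysates were resolved by SDS-PAGE and immunoblotted for phospho-PLCγ1, with HRP secondary antibody and ECL detection.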
In general terms: In western blotting, separated proteins are transferred to a membrane and probed.

A further assay concerns the target T1, ITK (Homo sapiens, UniProt Q08881).
T1 sequence (Q08881 1-620): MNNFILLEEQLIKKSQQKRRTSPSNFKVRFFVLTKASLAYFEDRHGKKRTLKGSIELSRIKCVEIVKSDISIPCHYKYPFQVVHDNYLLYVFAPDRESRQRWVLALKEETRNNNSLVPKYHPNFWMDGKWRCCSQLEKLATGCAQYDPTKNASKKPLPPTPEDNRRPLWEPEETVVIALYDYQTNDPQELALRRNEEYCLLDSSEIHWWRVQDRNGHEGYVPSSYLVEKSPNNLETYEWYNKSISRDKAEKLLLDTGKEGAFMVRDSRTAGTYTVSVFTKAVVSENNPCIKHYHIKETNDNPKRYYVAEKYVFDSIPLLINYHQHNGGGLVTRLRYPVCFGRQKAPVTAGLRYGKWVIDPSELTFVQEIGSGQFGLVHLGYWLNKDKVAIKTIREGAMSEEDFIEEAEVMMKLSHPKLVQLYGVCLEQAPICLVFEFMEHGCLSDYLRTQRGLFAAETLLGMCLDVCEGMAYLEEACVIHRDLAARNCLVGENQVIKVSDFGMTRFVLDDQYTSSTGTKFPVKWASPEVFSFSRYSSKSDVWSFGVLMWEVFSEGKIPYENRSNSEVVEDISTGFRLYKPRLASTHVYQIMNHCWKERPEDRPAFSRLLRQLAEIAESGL
Description: ITK inhibitor binding potency (LanthaScreen competitive binding assay). The note with it: TR-FRET competitive binding, 10 nM ITK, 50 nM kinase tracer-236; pre-incubation condition not given; read-out: ITK Inhibition IC50. An outline of the steps:
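TR-FRET tracer displacement using 10 nM ITK, 2 nM Eu-anti-GST antibody, 50 nM kinase tracer-236 in 20 mM HEPES pH 7.5, 10 mM MgCl2, 0.01% BSA, 0.0005% Tween-20, 2% DMSO. Run with or without 2 h compound–ITK pre-incubation before tracer; 11-point dose-response 20 uM–0.34 nM, IC50 from 4-parameter fit of emission ratio.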
For orientation: Time-resolved FRET reads energy transfer from a long-lived donor to a nearby acceptor.

Read-outs that look alike come from different tables or passages of the source.

Turning to `CN(C)C/C=C/C(=O)Nc1cncc(-c2cnc3[nH]cc(-c4ccnc(C#N)c4)c3c2)c1` [Example 61, (E)-N-(5-(3-(2-cyanopyridin-4-yl)-1H-pyrrolo-[2,3-b]pyridin-5-yl)pyridin-3-yl)-4-(dimethyl-amino)but-2-enamide], the IC50 was 1000 to 5000 nM in assay [1] (Human Jurkat T cells) and not above 100 nM on ITK.
As to `COc1cc(-c2cnc3[nH]cc(-c4cccc(C#N)c4)c3c2)cc(N(C)C(=O)/C=C/CN(C)C)c1` [Example 64], the 50% inhibitory concentration (IC50) in assay [1] (Homo sapiens, Jurkat, 2 h) is not above 1000 nM; on ITK, not above 100 nM.
The corresponding values for `Cc1cc2c(-c3c[nH]c4ncc(-c5cc(NC(=O)/C=C/CN(C)C)cc(C(F)(F)F)c5)cc34)ccnc2[nH]1` [Example 14, (E)-4-(dimethyl-amino)-N-(3-(2′-methyl-1H,1′H-[3,4′-bipyrrolo-[2,3-b]pyridin]-5-yl)-5-(trifluoro-methyl)phenyl)-but-2-enamide] are not above 1000 nM and not above 100 nM.
On to `CN(C)C/C=C/C(=O)Nc1cncc(-c2cnc3[nH]cc(-c4ccnc(C#N)c4)c3c2)c1` [Example 4, (E)-N-(5-(3-(2-Cyanopyridin-4-yl)-1H-pyrrolo[2,3-b]pyridin-5-yl)pyridin-3-yl)-4-(dimethylamino)but-2-enamide], for which the IC50 is not above 1000 nM in assay [1] (Homo sapiens, Jurkat, 2 h) and not above 100 nM on ITK.
The corresponding values for `C=CC(=O)N(C)c1cccc(-c2cnc3[nH]cc(-c4ccnc(OC)c4)c3c2)c1` [Example 2, N-(3-(3-(2-Methoxypyridin-4-yl)-1H-pyrrolo[2,3-b]pyridin-5-yl)phenyl)-N-methylacrylamide] are 1000 to 5000 nM and not above 100 nM.
Consider `COc1cc(NC(=O)/C=C/CN(C)C)cc(-c2cnc3[nH]cc(-c4cccc(C#N)c4)c3c2)c1` [Example 19, (E)-N-(3-(3-(3-cyanophenyl)-1H-pyrrolo[2,3-b]-pyridin-5-yl)-5-methoxyphenyl)-4-(dimethyl-amino)but-2-enamide], for which the IC50 was not above 1000 nM in assay [1] (Homo sapiens, Jurkat, 2 h) and not above 100 nM on ITK.
Turning to `C=CC(=O)Nc1cc(OC)cc(-c2cnc3[nH]cc(-c4ccnc(NC)n4)c3c2)c1` [Example 41, N-(3-methoxy-5-(3-(2-(methyl-amino)pyrimidin-4-yl)-1H-pyrrolo-[2,3-b]pyridin-5-yl)phenyl)acryl-amide], the IC50 in assay [1] (Homo sapiens, Jurkat, 2 h) is not above 1000 nM; on ITK, not above 100 nM.
On to `C=CC(=O)Nc1cc(OC)cc(-c2cnc3[nH]cc(-c4ccncn4)c3c2)c1` [Example 30, N-(3-methoxy-5-(3-(pyrimidin-4-yl)-1H-pyrrolo-[2,3-b]pyridin-5-yl)phenyl)-acrylamide], for which the IC50 was not above 1000 nM in assay [1] (Homo sapiens, Jurkat, 2 h) and not above 100 nM on ITK.
As for `COc1cc(-c2c[nH]c3ncc(-c4cncc(NC(=O)/C=C/CN(C)C)c4)cc23)ccn1` [Example 71, (E)-4-(dimethyl-amino)-N-(5-(3-(2-methoxypyridin-4-yl)-1H-pyrrolo[2,3-b]pyridin-5-yl)-pyridin-3-yl)but-2-enamide], the IC50 was not above 1000 nM in assay [1] (Homo sapiens, Jurkat, 2 h) and not above 100 nM at ITK.
The corresponding values for `C=CC(=O)Nc1cc(-c2cnc3[nH]cc(-c4ccnc5[nH]ccc45)c3c2)cc(C(F)(F)F)c1` [Example 25, N-(3-(1H,1′H-[3,4′-bipyrrolo-[2,3-b]pyridin]-5-yl)-5-(trifluoro-methyl)phenyl)-acrylamide] are not above 1000 nM and not above 1000 nM.
As to `C=CC(=O)Nc1cc(OC)cc(-c2cnc3[nH]cc(-c4ccnc(OC)c4)c3c2)c1` [Example 26, N-(3-methoxy-5-(3-(2-methoxy-pyridin-4-yl)-1H-pyrrolo[2,3-b]-pyridin-5-yl)-phenyl)acrylamide], the IC50 was not above 1000 nM in assay [1] (Homo sapiens, Jurkat, 2 h) and not above 100 nM at ITK.
For `C=CC(=O)Nc1cccc(-c2cnc3[nH]cc(-c4cncc(C(N)=O)c4)c3c2)c1` [Example 9, 5-(5-(3-acryl-amidophenyl)-1H-pyrrolo[2,3-b]-pyridin-3-yl)-nicotinamide], in that order: more than 5000 nM and not above 100 nM.
For `CNc1nccc(-c2c[nH]c3ncc(-c4cccc(NC(=O)/C=C/CN(C)C)c4)cc23)n1` [Example 27, (E)-4-(dimethyl-amino)-N-(3-(3-(2-(methylamino)-pyrimidin-4-yl)-1H-pyrrolo[2,3-b]pyridin-5-yl)phenyl)but-2-enamide], in that order: 1000 to 5000 nM and not above 100 nM.

What is called IC50 is the concentration needed to halve the response being measured.
